Experimental data taken from paper PMC9008429, “Identification of a New Cholesterol‐Binding Site within the IFN‐γ Receptor that is Required for Signal Transduction” (Advanced Science, 2022).
Residue numbers refer to the chain shown, from its start.

Key:
[1] = biological target: T1, IFN-γR2 (Homo sapiens, UniProt P38484, L250T/I251T/G254F); assay: in vivo photoaffinity labelling, UV cross-link, anti-GFP IP, autoradiography; assay type: cell-based; settings: 3 µM probe, 6 h; full-length GFP fusion, CHO and HAP1 IFN-γR2 KO cells; covalent; labelled compound; with or without IFN-γ
T1 construct: gene IFNGR2; full-length, C-terminal GFP fusion (peGFP-N1); transiently expressed in CHO (with IFN-γR1-RLuc) or HAP1 IFN-γR2 KO cells
T1 sequence (P38484 22-337 L250T/I251T/G254F): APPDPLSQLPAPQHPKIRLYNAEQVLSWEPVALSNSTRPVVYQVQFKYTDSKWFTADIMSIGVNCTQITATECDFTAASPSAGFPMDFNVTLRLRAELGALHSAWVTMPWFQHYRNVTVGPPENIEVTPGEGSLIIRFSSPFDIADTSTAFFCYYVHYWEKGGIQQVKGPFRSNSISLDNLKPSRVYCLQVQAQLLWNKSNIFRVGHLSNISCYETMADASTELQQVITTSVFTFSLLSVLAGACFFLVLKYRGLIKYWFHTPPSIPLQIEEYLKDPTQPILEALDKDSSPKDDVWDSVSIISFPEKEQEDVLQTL

[2] = biological target: T2, IFN-γR2 (Homo sapiens, UniProt P38484); assay: competition of photoaffinity labelling in living cells, anti-GFP IP, autoradiography; assay type: cell-based; settings: competes with [3H]-photo-chol, dose-dependent; curve only in supplement
T2 construct: gene IFNGR2; full-length, C-terminal GFP fusion (peGFP-N1); transiently expressed in CHO (with IFN-γR1-RLuc) or HAP1 IFN-γR2 KO cells; in the functional receptor two R1 and two R2 chains
T2 sequence (P38484 22-337): T1 sequence (P38484 22-337 L250T/I251T/G254F) with T229L, T230I, F233G

% reduction of chol binding vs wild type [1] [%] | Molecule | competition of photoaffinity labelling in living cells, anti-GFP IP, autoradiogr [2]
> 50 | [3H]-photo-chol | 
 | CC(C)CCC[C@@H](C)[C@H]1CC[C@H]2[C@@H]3CC=C4C[C@@H](O)CC[C@]4(C)[C@H]3CC[C@]12C [chol] | cross‐linking between [^3H]‐photo‐chol and IFN‐γR2 was competed in a dose‐dependent manner
